Test results taken from patent publication US20200347362A1, “COMPOSITION AND METHOD FOR INCREASING PRODUCTION OF BACTERIOPHAGE USING REACTIVE OXYGEN SPECIES” (Hankuk University of Foreign Studies Research & Business …, priority 2017, published 2020).
Where two headings read alike, the source gives them in different places.

How the values were obtained:
[1] = system: bacteriophage T4 on E. coli; conditions: solid medium, sub-lethal dose of hydrogen peroxide
Procedure: Phage plaque size measurement. Phage plaques were allowed to form on a bacterial lawn and the size measured using a digital caliper.
(§1) The serially diluted phage solution was plated to a solid medium containing sublethal dose of H2O2 by using a double agar overlay and the number of phages was counted.

[2] = system: bacteriophage T4 in E. coli K12 (MG1655)
Procedure: E. coli K12 (MG1655) was cultured overnight. The overnight culture was inoculated at 1:100 (vol:vol) ratio to a 10 ml LB broth in a 50 ml tube and incubated for 1 hr to prepare a fresh culture. When the E. coli K12 strain reached an OD600 of 0.3, H2O2 was added at a final concentration of 4.5 mM and incubated further for 1 hr until OD600 of 0.5˜0.7.
Then T4 was added at a multiplicity of infection (MOI) of 0.001 and incubated further for 5 min at 37° C. in a shaking incubator to allow for phage adsorption. Then the culture was centrifuged at 12,000 rmp for 5 min and the supernatant was removed. Ten ml of fresh LB broth was added to the pellet and resuspended. When the resuspension was completed, which was set to 0 min, the resuspend culture was incubated at a 37° Crotary incubator at 0 min, and 500 μl of the culture was taken at 5 minute intervals. Each of the culture was then plated by a double agar overlay and the number of phages were counted.

E. coli [3] = conditions: E. coli cultured in liquid medium with sub-lethal dose of hydrogen peroxide (FIG. 2)
Procedure: Bacteria Imaging. The bacterial morphologies were observed under a laser scanning microscope using ZEN software. (Zeiss LSM 700). For sampling, 5˜10 ul of the bacteria was dropped on a glass slide and covered with a coverslip. After 20 min of drying in a fume hood, the bacteria were observed using a 100× objective lens. When the bacteria were cultured using a glass-bottom 96-well black plate (Ibidi #89626), the bacteria were fixed with cold acetone and blocked with 1% BSA in PBST for 30 min.
as §1

E. coli [4] = system: E. coli
Description: In the present disclosure, the term “sublethal concentration” refers to a concentration that affects the growth of the bacteria but is not enough to cause bacterial death. The concentration may vary and be determined depending on the particular ROS, bacteria, and/or culture medium employed. In one embodiment of the present disclosure, the sublethal concentration is defined as a minimum concentration at which the growth rate of bacteria remains constant until 1 hr after the treatment with ROS, which begin to decrease 2 hrs after the treatment with ROS.
H2O2 was used as ROS, which was prepared by 1:2 serial dilution.

[5] = 4.5 mM H2O2, liquid medium, T4 at MOI 0.001 (FIG. 3)

SMILES: OO [H2O2, hydrogen peroxide]
- increase of plaque size (diameter) compared to the control [1]: at least 5 times
- delay of the start of the burst compared to the control [2, 5]: 5 min
- increase of the size of the burst compared to the control [2, 5]: 6 times
- phage production ([2]; sublethal dose of H2O2): increase in the phage production was clearly observed
- bacterial morphology (filamentation, bacterial length) (E. coli [3]): bacterial filamentation was clearly observed
- bacterial morphology (filamentation, bacterial length) (E. coli [3]; listed as hydrogen peroxide): Increase in bacterial length due to bacterial filamentation
- sublethal concentration (E. coli [4]; liquid medium (FIG. 1)): 4.5 mM
- sublethal concentration (E. coli [4]; solid medium): 0.2 mM
